Source: patent US11092602B2, “Methods and compositions relating to proteasome inhibitor resistance” (Whitehead Institute for Biomedical Research, priority 2015, dated 2021)
Entries after “also recorded” stand apart in the source; their conditions may differ.

Legend:
HepG2 cells = assay: Cell viability assay (resazurin) in HepG2 cells expressing proteasome subunit shRNAs; type: cell-based, human
From the text: Next, we asked if a simple reduction in the expression of 19S subunits could protect against the toxicity of proteasome inhibitors. We assembled a panel of shRNA-expressing lentiviruses targeting seventeen 19S subunits and three 20S subunits (PSMB5, PSMB7 and PSMA3). Each gene was targeted separately using four different shRNAs (FIG. 2, Table S2) and we averaged the effects on viability from these four hairpins.
For the analysis of multiple proteasome subunit knockdown 80 shRNA targeting 20 proteasome subunits (4 different shRNAs) and 13 control shRNAs (Table S2) in pLKO lentiviral vectors from the RNAi consortium shRNA library were utilized. Cells were plated in 96 wells with the volume of 100 μL media at the concentration of 2500 cells/well. 24 hours after plating media was discarded and 50 μl with 7.5-10 μg/μ1 of polybrene and 7 μl of purified virus was added. After incubation for 24 hours the media was discarded and 200 μl of fresh media with 1 μg/ml puromycin was added. Bortezomib was added where specified. pLKO lentiviral vectors from the RNAi consortium shRNA library targeting the PSMC5 and PSMD2 (Table 2) were further used to create HepG2 and T47D stably overexpressing these shRNAs by selection with puromycin 1 μg/ml for one week.
Relative cell growth and survival were measured in 96-well microplate format in the shRNA experiments and in 384 well format in the drug toxicity assays, by using the fluorescent detection of resazurin dye reduction as an endpoint (544 nm excitation and 590 nm emission). 2,500 cells in 96 wells format or 1,000 cells in 384 well format were plated 24 hours before compound exposure (for 72 hours or indicated time). Each analysis was performed at least with three replicas.

20S proteasome = 20S proteasome (Homo sapiens, UniProt P28074); assay: Native gel analysis of proteasomal complexes with Suc-LLVY-AMC substrate overlay; type: biochemical; conditions: 12 nM bortezomib for 24 hours
From the text: We first separated 20S and 26S proteasomes on native gels and examined effects on the relative levels of 26S and 20S proteasome complexes. In cells with reduced levels of either PSMC5 or PSMD2, 26S proteasome complexes were reduced and 20S proteasome complexes were increased (FIGS. 2E and 2F). These changes persisted in the presence of bortezomib (FIGS. 2E and 2F). Next, we assayed their activity with a fluorescently labeled substrate.
Proteasomal samples were loaded on a nondenaturing 4% polyacrylamide gel using the protocol described previously (Tsvetkov et al., 2014). Gels were either overlaid with Suc-LLVY-AMC (50 μM) for assessment of proteasomal activity or transferred to nitrocellulose membranes where immunoblotting specific for proteasomal subunits was conducted. Proteasomal activity was assessed by measuring the hydrolysis of Suc-LLVY-AMC by substrate overlay assays in native polyacrylamide gels with 50 mM Tris-HCl, pH 7.8, 5 mM MgCl2, 1 mM DTT, 2 mM ATP, 50 μM Suc-LLVY-AMC peptide, and incubating the gels at 37° C. for 30-60 min. Activity was visualized by transilluminated by a UV light and photographed with BIORAD Chemidoc imaging system.

[1] = test system: stress-response transcripts; assay: RNA-seq gene expression profiling of PSMD2 knockdown and control (shLacZ) cells; type: cell-based, human; conditions: control cells; 12 nM bortezomib for 24 hours
Procedure: Sequence data confirmed that PSMD2 mRNA levels were reduced by ˜50% in both lines. We examined basal gene expression and the effects of bortezomib treatment on these cells, comparing them to cells carrying a control lacZ shRNA construct.
RNA was extracted from triplicate samples and RNA libraries were prepared for sequencing by NEBNext Ultra RNA Library Prep Kit for Illumina (New England BioLabs, Ipswich, Mass.), including the removal of large and small RNA, synthesis of cDNA, and construction of cDNA libraries. Libraries were barcoded using NEBNext Multiplex Oligos for Illumina (NEB). Libraries were sequenced using Illumina HiSeq 2500, with paired-end 100 bp reads. Paired-end reads were aligned to UCSC human transcriptome 19 (hg19) using TopHat (Bowtie v2.0.9). Alignment quality and read distribute was assessed via SAMtools (v0.1.19) (Li et al., 2009). Transcript assembly was conducted using cufflinks (v2.2.1). […] RNA sequencing data have been deposited in the NCBI Sequence Read Archive under accession number: PRJNA281613.
Genes differentially expressed upon PSMD2 knockdown in either the presence or absence of bortezomib treatment were determined as follows (FIG. 3E): For each gene in the matrix described above, the values were normalized to the average expression in the LacZ control cells. […]

T47D cells [2] = assay: Cell viability of T47D cells with doxycycline-inducible PSMD2 shRNA; type: cell-based, human
Procedure: T47D cells harboring a doxycycline inducible control shRNA (GFP) or a doxycycline-inducible PSMD2 shRNA (TurboRFP) were incubated with doxycycline for 3 days. Cells were then split and grown in the absence of Dox and proteasome inhibitors were then added at various concentrations. Cells were maintained in culture and then counted.
For the generation of the T47D Tet-inducible PSMD2 knockdown cell line—the TRIPZ vector with an inducible shRNA targeting PSMD2 was purchased from Dharmacon (clone V3THS_403760). It was introduced to the T47D cells according to manufactures protocol and cells were selected with puromycin 1 μg/ml for one week. The cells were exposed to doxycycline for 24 hours and cells were FACS sorted for the top 10% of most RFP expressing cells (highest expression of shRNA). The cells were further cultured in the absence of doxycycline and PSMD2 knockdown was induced as specified in the relevant Examples.

[3] = test system: relapsed multiple myeloma; assay: Phase 2 and 3 clinical trials of bortezomib in relapsed multiple myeloma, stratified by sigma score; type: in vivo, human
From the text: We analyzed gene expression data from 135 patients with relapsed multiple myeloma who participated in Phase II or III trials of bortezomib (˜2007; Mulligan, G., Mitsiades, et al. (2007) Gene expression profiling and correlation with outcome in clinical trials of the proteasome inhibitor bortezomib. Blood 109, 3177-3188) and determined the sigma score for each cancer. The sigma score for each cancer (prior to treatment) was computed by comparing the expression of each 19S subunit (except PSMC4, which was not included in the analysis for technical reasons) in each cancer with the average expression of that subunit in the total set of cancers (reference level) and determining the number of standard deviations by which each expression level differed from the reference level.
Methods details: re-treatment gene expression data from relapsed multiple myeloma patients undergoing clinical trials with bortezomib were downloaded from GSE9782 (34). Gene expression data was RMA normalized and log transformed. Sigma scores were calculated from all probes. […] For each group, the time to relapse from bortezomib treatment was plotted as a Kaplan-Meier plot. P-value was calculated using Wilcoxon test.

T47D cells [4] = assay: Selleck anti-cancer compound library screen, PSMD2 KD versus control T47D cells (resazurin); type: cell-based, human; conditions: 4 concentrations, 72 hours
Procedure: After 48 hours the cells were collected, counted, and plated at 1000 cells/well in 384 well plates in duplicates for each cell line. Compounds from the Selleck Chemicals anti-cancer compound library β49 drugs in 4 concentrations; […]) were pinned the next day and viability was measured after 72 hours by the reduction of Resazurin (Ex=530 nm, Em=590 nm).
The effect of each drug on viability of cells was calculated by averaging the duplicate experiments. The data is plotted in FIG. 16 as the log2 of the ratio of viability of PSMD2 KD versus control cells (log2 (shPSMD2/Control)).

β5-subunit = β5-subunit (Homo sapiens, UniProt P28074); conditions: cited from earlier work

CC(C)C[C@H](NC(=O)[C@H](Cc1ccccc1)NC(=O)c1cnccn1)B(O)O [bortezomib]
proliferation of lines stably expressing shRNA targeting PSMC5 or PSMD2 (HepG2 cells; HepG2, 12 nM bortezomib): continued proliferating
concentration of bortezomib that completely inhibited the proliferation of control cells (HepG2 cells; HepG2 control cells): 12 nM
EC50 values increased versus parental line (HepG2 cells; HepG2 lines with shRNA-driven modest reduction in PSMD2, 4 days): three to six
20S proteasome activity (20S proteasome; cells with reduced PSMC5 or PSMD2): maintained a significant level of 20S proteasome activity
20S proteasome function (20S proteasome; control cells): nearly complete inactivation of 20S proteasome function
transcriptional response [1]: sharp increase in stress-response transcripts
resistance upon doxycycline-induced reduction of PSMD2 (T47D cells [2]; PSMD2 shRNA versus control): significantly increased resistance; also recorded: increase in resistance
resistance of cells harboring the PSMD2 shRNA versus parental line (EC50) (T47D cells [2]; doxycycline 3 days, 96 hour culture): considerably more resistant
time to progression ([3]; 34 patients with reduced expression of at least one 19S subunit versus patients without, p-value=0.0086): shortened time to progression
progression-free survival ([3]; patients with 3-Sigma disease versus sigma score less than 3): Reduced Progression-Free Survival
effectiveness over dexamethasone control ([3]; patients with reduced expression of 19S proteasome subunit(s)): no significant effectiveness over the dexamethasone control
selective effect on viability, PSMD2 KD versus control cells (log2 (shPSMD2/Control)) (T47D cells [4]): selectively reduce viability of control cells versus PSMD2 KD cells
potency of inhibition of the β5-subunit (β5-subunit): low nanomolar
